This is an account of results in patent publication US20110319392A1, “Thiazole Sulfonamide And Oxazole Sulfonamide Kinase Inhibitors” (priority 2009, published 2011).

The test system of one experiment is BT474 tumor cells. Description: Cell growth inhibition assay (CellTiter-Glo), BT474. The format is cell-based, Human. Conditions: Homo sapiens, BT-474, 72 h, 3 days incubation. The procedure: (§1) Human breast tumor cells (BT474) were cultured in RPMI (Mediatech […]), containing 10% FBS (JRH Biosciences 12176) and 1% penicillin-streptomycin (Invitrogen 15140). Human head and neck tumor cells (HN5) were cultured in high glucose DMEM (Mediatech 50-013-PB) containing 10% FBS and 1% penicillin-streptomycin. Human colon tumor cells (Colo205) were cultured in RPMI (Mediatech 50-020-PB) containing 10% FBS and 1% penicillin-streptomycin. Human melanoma cancer cells (SK-MEL-28) were cultured in EMEM with nonessential amino acids (Mediatech 50-011-PB) containing 10% FBS, 1% sodium pyruvate (JT Baker 3354-04), and 1% penicillin-streptomycin. Human melanoma cancer cells (A375P F11s) were cultured in RPMI (Mediatech 50-020-PB) containing 10% FBS, 1% sodium pyruvate, and 1% penicillin-streptomycin. Human colon cancer cells (HT-29) were cultured in high glucose DMEM (Mediatech 50-013-PB) containing 10% FBS and 1% penicillin-streptomycin. Human melanoma cancer cells (SK-MEL-3) were cultured in McCoy's 5A (50-025-PB) containing 15% FBS, and 1% penicillin-streptomycin. All cell lines were maintained at 37° C. in a humidified 5% CO2, 95% air incubator. Cells were harvested using trypsin/EDTA (Invitrogen 25200), counted using a haemocytometer, and plated. For 96-well assays (using white full-area NUNC plates cat. #136102), cells were plated in 105 μL at the following densities (cells/well): HNS, 500; Colo 205, 500; SK-MEL-28, 500; A375P F11s, 500; HT-29, 500; SK-MEL-3, 500; and BT474, 3000. For 384-well assays (white full-area NUNC plates, cat. #781080), cells were plated in 48 μL at the following densities (cells/well): HNS, 500; Colo205, 500; SK-MEL-28, 500; A375P F11s, 500; HT-29, 500; SK-MEL-3, 500; and BT474, 2000.
(§2) The next day, compounds were diluted as follow: For 96-well assays, 13.5 μL of compound in DMSO were diluted using nine (9) serial 1:3 dilutions of 4.5 μL in 9 of DMSO. Medium (270 μL/well of RPMI with 10% FBS and 1% penicillin-streptomycin) was added to the plates. Aliquots (7 μL) were added to cells in the final assay giving a final DMSO concentration of 0.2%. For 384-well assays, 15 μL of compound in DMSO were diluted using nine (9) serial 1:3 dilutions of 5 μL in 10 μL of DMSO, followed by a further dilution of 5 μL of compound with 95 μL of medium, of which 2 μL were added to cells in the final assay giving a final DMSO concentration of 0.2%. Cells were incubated at 37° C., 5% CO2 for 3 days.
(§3) Total ATP was measured (as a surrogate estimate of cell number) using CellTiter-Glo® reagent (Promega G7571). Briefly, plates were removed from the incubator and allowed to equilibrate to room temperature for 30 minutes. CellTiter-Glo® (25 μL or 55 μL for 384-well or 96-well assays, respectively) reagent was added to each well and plates were shaken on an orbital plate shaker for 2 minutes. Plates were incubated without shaking for a further 30 minutes and read on an LJL Analyst GT reader in luminometer mode with an integration time of 0.5 seconds per well. Percent inhibition of cell growth was calculated relative to DMSO vehicle-treated control wells. Concentration of compound required to give 50% inhibition of vehicle-treated control cell growth (IC50) was interpolated using a 4-parameter fit for determining IC50 using the following equation: Y=A +((B−A)/(1+((C/X)̂D))) where […].

The test system of another experiment is SK-MEL-28 tumor cells. As to the kind of experiment: Cell growth inhibition assay (CellTiter-Glo), SK-MEL-28. The format is cell-based, Human. Conditions: Homo sapiens, SK-MEL-28, 72 h; 3 days incubation. The essentials: (§4)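 Cells plated at 500 cells/well in their growth media, dosed next day with nine-step 1:3 compound dilutions (final DMSO 0.2%), then incubated 3 days at 37° C, 5% CO2. Total ATP read by CellTiter-Glo luminescence as a surrogate for cell number; IC50 interpolated from 4-parameter fit versus DMSO controls.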

A further experiment deals with HN5 tumor cells. As to the kind of experiment: Cell growth inhibition assay (CellTiter-Glo), HN5. The format is cell-based, Human. Conditions: Homo sapiens, 72 h; 3 days incubation. The protocol: as §1, §2, §3
The next experiment addresses T1, ErbB2 (Homo sapiens, UniProt P04626).
T1 construct: made in house; host or cells: baculovirus expression system
As to the kind of experiment: ErbB-2 substrate phosphorylation assay (HTRF). The format is biochemical. The essentials: (§5)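 Baculovirus-expressed EGFR (0.8 nM) or ErbB2 (10 nM) in enzyme mix, preincubated 1 h at 20 °C with compound (0.00027–47.6 μM final), then 90 min at 20 °C with substrate mix of 20 μM ATP, 0.8 uM biotinylated Peptide C, MnCl2, MOPS pH 7.5. Phosphotyrosine by HTRF; pIC50 reported.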

Another experiment has as its system SK-MEL-3 tumor cells. Description: Cell growth inhibition assay (CellTiter-Glo), SK-MEL-3. The experiment is classed as cell-based, Human. Conditions: Homo sapiens, SK-MEL3. The protocol:
as §1, §2, §3

The test system of a further experiment is A375P F11s tumor cells. Description: Cell growth inhibition assay (CellTiter-Glo), A375P F11s. Conditions: Homo sapiens. The experiment is classed as cell-based, Human. The protocol: as §1, §2, §3
The subject of a further experiment is Colo205 tumor cells. As to the kind of experiment: Cell growth inhibition assay (CellTiter-Glo), Colo205. The format is cell-based, Human. Conditions: Homo sapiens, COLO 205, 72 h; 3 days incubation. The essentials:
as §4

For a further experiment, the system named is HT-29 tumor cells. As to the kind of experiment: Cell growth inhibition assay (CellTiter-Glo), HT-29. Conditions: Homo sapiens. The experiment is classed as cell-based, Human. The protocol:
as §1, §2, §3

The target in another experiment is T2, EGFR (Homo sapiens, UniProt P00533).
T2 construct: made in house; host or cells: baculovirus expression system
T2 sequence (P00533 25-1210): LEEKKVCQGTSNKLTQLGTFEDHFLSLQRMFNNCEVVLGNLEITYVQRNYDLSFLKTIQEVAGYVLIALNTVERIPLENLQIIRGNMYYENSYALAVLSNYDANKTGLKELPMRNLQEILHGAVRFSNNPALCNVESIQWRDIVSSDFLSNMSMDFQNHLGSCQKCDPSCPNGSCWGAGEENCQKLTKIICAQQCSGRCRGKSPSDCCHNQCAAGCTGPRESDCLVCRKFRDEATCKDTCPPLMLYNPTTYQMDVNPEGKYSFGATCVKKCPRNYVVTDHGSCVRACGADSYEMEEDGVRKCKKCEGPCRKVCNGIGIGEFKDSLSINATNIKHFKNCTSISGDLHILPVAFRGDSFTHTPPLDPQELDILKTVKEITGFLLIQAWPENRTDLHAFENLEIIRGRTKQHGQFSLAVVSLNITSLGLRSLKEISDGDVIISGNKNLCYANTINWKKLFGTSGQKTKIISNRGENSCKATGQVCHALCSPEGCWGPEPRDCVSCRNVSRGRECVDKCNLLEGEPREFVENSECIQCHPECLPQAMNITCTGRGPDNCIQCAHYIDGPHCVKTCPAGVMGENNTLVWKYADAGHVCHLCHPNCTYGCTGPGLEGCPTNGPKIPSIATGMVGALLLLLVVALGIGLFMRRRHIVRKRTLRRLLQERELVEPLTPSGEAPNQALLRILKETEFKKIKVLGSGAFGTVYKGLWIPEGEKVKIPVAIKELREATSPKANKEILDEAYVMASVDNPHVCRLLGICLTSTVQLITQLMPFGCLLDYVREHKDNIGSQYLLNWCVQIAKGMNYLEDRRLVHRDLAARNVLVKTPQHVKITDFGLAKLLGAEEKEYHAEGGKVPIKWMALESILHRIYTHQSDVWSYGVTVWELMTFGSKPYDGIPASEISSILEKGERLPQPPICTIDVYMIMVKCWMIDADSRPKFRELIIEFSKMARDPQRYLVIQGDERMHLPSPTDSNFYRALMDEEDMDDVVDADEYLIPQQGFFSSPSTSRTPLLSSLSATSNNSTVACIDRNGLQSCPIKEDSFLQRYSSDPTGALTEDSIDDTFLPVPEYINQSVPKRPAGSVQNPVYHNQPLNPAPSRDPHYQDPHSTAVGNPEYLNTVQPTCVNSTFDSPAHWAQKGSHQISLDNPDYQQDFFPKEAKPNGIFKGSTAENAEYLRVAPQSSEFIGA
Description: EGFR substrate phosphorylation assay (HTRF). The format is biochemical. The essentials:
as §5

Another experiment has as its system A375P F11s. As to the kind of experiment: In vivo tumor growth, A375P F11s subcutaneous tumors. Details: species or system athymic mice; key: −: no response; +: growth delay (1-2×doubling); ++: growth delay (>2×doubling); +++: stable disease; ++++: partial regression; +++++: complete regression. Conditions: oral, 14-day period. The protocol: (§6) A375P F11s and Colo205 cells were cultured in RPMI 1640 medium supplemented with 10% fetal bovine serum and 1% sodium pyruvate or 10% fetal bovine serum and without sodium pyruvate, respectively. Tumor cells (1.75×10^6 A375P F11 s or 5×10^6 Colo205) were implanted subcutaneously into the right flank of athymic mice on Day 1. To facilitate their growth, A375P F11s cells were suspended in Matrigel diluted 1:1 in phosphate-buffered saline before implantation. When tumors had reached approximately 200 mm^3 in volume (Day 19-22), tumor-bearing mice were randomized into study groups (n=7 or 8). Animals were dosed orally once or twice daily for a 14-day period. The compound of Example 19b was dosed in a 0.5% HPMC/0.2% Tween 80 pH 7-8 vehicle. Tumor growth was measured twice a week using calipers for the duration of the study. Tumor volumes were calculated as a product of (length×width×width)/2 and median values were used to compare groups. Complete regressions (CR) were defined as three consecutive tumor measurements of ≦13.5 mm^3. Partial regressions were defined as three consecutive measurements of ≦50% of starting tumor volume. Tumor growth delay was defined as the difference in time taken for treated and control groups to reach 1000 mm^3 (T-C1000).

The subject of a further experiment is Colo205. Description: In vivo tumor growth, Colo205 subcutaneous tumors. Details: species or system athymic mice; key: −: no response; +: growth delay (1-2×doubling); ++: growth delay (>2×doubling); +++: stable disease; ++++: partial regression; +++++: complete regression. Conditions: oral, 14-day period. The procedure:
as §6

pIC50: −log10 of the molar value. Structures can show the parent of a compound that is named as a salt. Marks after values point to notes of the source that are not given here. Some results are limits rather than exact numbers.

T1 sequence (P04626 23-1255): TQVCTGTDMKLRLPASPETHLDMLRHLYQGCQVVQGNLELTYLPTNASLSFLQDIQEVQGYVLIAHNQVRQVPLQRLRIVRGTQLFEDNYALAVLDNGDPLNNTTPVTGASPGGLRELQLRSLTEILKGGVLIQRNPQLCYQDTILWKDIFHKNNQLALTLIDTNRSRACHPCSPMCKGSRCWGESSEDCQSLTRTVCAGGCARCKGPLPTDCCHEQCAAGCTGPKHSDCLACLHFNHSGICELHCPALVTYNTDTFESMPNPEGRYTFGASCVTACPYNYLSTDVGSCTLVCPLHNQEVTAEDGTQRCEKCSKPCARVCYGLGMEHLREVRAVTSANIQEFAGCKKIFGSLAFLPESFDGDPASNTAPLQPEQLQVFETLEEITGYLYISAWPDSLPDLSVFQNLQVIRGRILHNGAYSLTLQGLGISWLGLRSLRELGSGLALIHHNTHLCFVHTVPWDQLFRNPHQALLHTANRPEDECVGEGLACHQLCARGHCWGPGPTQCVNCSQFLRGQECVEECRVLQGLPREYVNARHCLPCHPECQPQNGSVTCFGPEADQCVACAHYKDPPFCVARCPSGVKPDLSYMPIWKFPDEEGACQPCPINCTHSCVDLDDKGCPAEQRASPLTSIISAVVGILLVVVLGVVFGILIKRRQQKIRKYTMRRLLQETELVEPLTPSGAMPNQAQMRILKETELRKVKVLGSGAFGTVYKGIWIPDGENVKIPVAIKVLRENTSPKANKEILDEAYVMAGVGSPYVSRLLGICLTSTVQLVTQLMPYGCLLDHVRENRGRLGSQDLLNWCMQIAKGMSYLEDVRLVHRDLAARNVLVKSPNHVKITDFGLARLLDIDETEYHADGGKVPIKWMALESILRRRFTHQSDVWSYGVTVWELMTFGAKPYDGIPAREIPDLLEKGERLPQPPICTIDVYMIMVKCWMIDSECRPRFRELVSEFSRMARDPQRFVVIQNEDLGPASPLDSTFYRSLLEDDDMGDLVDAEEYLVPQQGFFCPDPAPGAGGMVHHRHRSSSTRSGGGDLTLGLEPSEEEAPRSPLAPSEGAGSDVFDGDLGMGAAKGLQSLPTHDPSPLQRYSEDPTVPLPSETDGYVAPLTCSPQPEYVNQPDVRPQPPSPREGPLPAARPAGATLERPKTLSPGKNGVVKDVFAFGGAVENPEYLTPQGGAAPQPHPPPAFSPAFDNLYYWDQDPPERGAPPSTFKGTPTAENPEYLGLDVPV

Turning to `CCc1nc(-c2cccc(NS(=O)(=O)c3ccccc3)c2)c(-c2ccnc(Nc3cc(OC)c(OC)c(OC)c3)n2)s1` [Example 2, N-{3-[2-Ethyl-5-(2-{[3,4,5-tris(methyloxy)phenyl]amino}-4-pyrimidinyl)-1,3-thiazol-4-yl]phenyl}benzenesulfonamide], the pIC50 in the experiment on BT474 tumor cells was under 6.00; with SK-MEL-28 tumor cells, over 7.00; in the experiment on HN5 tumor cells it was 6.00 to 7.00; against ErbB2 it was under 6.00; with SK-MEL-3 tumor cells it was over 7.00; in the experiment on A375P F11s tumor cells it was over 7.00. Also, the negative logarithm of the IC50 (pIC50) in the experiment on Colo205 tumor cells is over 7.00; in the experiment on HT-29 tumor cells, 6.00 to 7.00; on EGFR, under 6.00.

As for `COc1cc(N2CCN(CCS(C)(=O)=O)CC2)c(C)cc1Nc1nccc(-c2sc(C(C)C)nc2-c2cccc(NS(=O)(=O)c3c(F)cccc3F)c2)n1` [Example 19b, 2,6-Difluoro-N-(3-(2-(1-methylethyl)-5-(24(5-methyl-2-(methyloxy)-4-(4-[2-(methylsulfonyl)ethyl]-1-piperazinyl}phenyl)amino]-4-pyrimidinyl}-1,3-thiazol-4-yl)phenyl]benzenesulfonamide dihydrochloride], the Response entry is “−” in the experiment with A375P F11s (1 mg/kg bid); “+” in the experiment with A375P F11s (3 mg/kg bid); “++” in the experiment with A375P F11s (10 mg/kg bid); “++++” with A375P F11s (30 mg/kg bid); “+++ (during dosing)*” in the experiment with A375P F11s (30 mg/kg qd, during dosing); “++” in the experiment on Colo205 (30 mg/kg bid). Further, the results for the Response entry in the experiment on Colo205 (30 mg/kg qd), with Colo205 (100 mg/kg bid) and with Colo205 (300 mg/kg qd) were “−”, “++++” and “++++”, respectively.
